Laboratory results reported in PMC6832952, “Synthesis and Evaluation of Pyrimidine Steroids as Antiproliferative Agents” (Molecules, 2019).
Where two headings read alike, the source gives them in different places. Blank lines part the entries; values can stand above or below the molecule they belong to.

Experiments:
[1] = Solubility under protocol conditions; format: physicochemical; conditions: growth inhibition protocol conditions
Source text: (§1) We studied the antiproliferative activity of α,β-unsaturated ketones (2 and 6) and steroidal pyrimidines (3 and 7) against human cell lines following the guidelines of the National Cancer Institute. For the tests we selected five human solid tumor cell lines from diverse origins and one human fibroblast cell line as a model of non-tumor cells. These cell lines were chosen as representative of drug sensitive (A549, HBL-100, and HeLa) and drug resistant (T-47D and WiDr) monolayer cultures based on previous studies. The steroidal anticancer drugs abiraterone and galeterone were also tested for comparison purposes. […] This is a relevant finding, since our compounds are non-toxic to healthy cells, whilst the steroidal anticancer drugs inhibit the growth of fibroblasts at GI50 values as low as 4.5–5 µM.
The following densities (cells per well) were used: 2500 (A549, HBL-100, HeLa and SW1573), 5000 (T-47D, WiDr and SW1573/PGP), and 7000 (BJ-hTERT). […] Abiraterone and galeterone were used as reference drugs for antiproliferative tests, verapamil was used as a P-gp transport inhibitor in SW1573/Pgp experiments, and their stock solutions were prepared in DMSO at 40 mM. Paclitaxel and vinblastine were used as positive controls in SW1573/Pgp experiments and were initially dissolved in DMSO at 4 mM. […] For each product GI50 values were calculated according to the NCI formulas.

HBL-100 (breast) cells = assay: Growth inhibition assay (NCI protocol), HBL-100; format: cell-based, human; conditions: Homo sapiens, HBL-100; 48 h exposure
Source text: as §1
(§2) The following densities (cells per well) were used: 2500 (A549, HBL-100, HeLa and SW1573), 5000 (T-47D, WiDr and SW1573/PGP), and 7000 (BJ-hTERT). […] Abiraterone and galeterone were used as reference drugs for antiproliferative tests, verapamil was used as a P-gp transport inhibitor in SW1573/Pgp experiments, and their stock solutions were prepared in DMSO at 40 mM. Paclitaxel and vinblastine were used as positive controls in SW1573/Pgp experiments and were initially dissolved in DMSO at 4 mM. For each test compound, the cells were exposed to serial decimal dilutions in the range of 0.001–100 μM for a period of 48 h. Cell culture medium containing verapamil was prepared by adding the final concentration of verapamil of 10 μM. For each product GI50 values were calculated according to the NCI formulas.

[2] = tested on: BJ-hTERT human fibroblast cells; assay: Growth inhibition assay (NCI protocol), BJ-hTERT fibroblasts; format: cell-based; conditions: Homo sapiens, Fibroblast; 48 h exposure; non-tumor cells
Source text: as §1, §2

[3] = tested on: SW1573 (non-small cell lung) cells; assay: Growth inhibition assay, SW1573 wild type; format: cell-based, human; conditions: Homo sapiens, SW1573, 48 h, without verapamil, read-out: GI50 SW1573 w/o Verapamil
Source text: (§3) Next, we studied if the compounds could be substrates for P-glycoprotein 1 (P-gp). P-gp is an important protein of the cell membrane that pumps xenobiotics out of cells. One of the resistance mechanisms to anticancer drugs involves the overexpression of P-gp by cancer cells, rendering these cancers multidrug resistant. Therefore, it is relevant to know whether compounds are substrates for P-gp or not. As a model to test the effect of P-gp overexpression in our compounds, we used a cell line-based assay. We selected one wild type human lung cancer cell line (SW1573) and its P-gp overexpressing variant (SW1573/PGP). In this test, cells were exposed to the compounds for 48 h in the absence or the presence of 10 µM verapamil, a well-known P-gp inhibitor [20].
(§4) The human solid tumor cell lines A549 (non-small cell lung), HBL-100 (breast), and HeLa (cervix), SW1573 (non-small cell lung), and its P-gp overexpressing variant (SW1573/Pgp), T-47D (breast), and WiDr (colon) were used in this study. These cell lines used in this study were kindly provided by Dr. Godefridus J. Peters (Cancer Center Amsterdam, Vrije Universiteit, Amsterdam, The Netherlands). BJ-hTERT human fibroblast cells were given by Dr. Raimundo Freire (Universidad de La Laguna, Canary Islands). All cells were grown in RPMI 1640 supplemented with 1 mM glutamine, 5% FBS and antibiotics. Cells were grown at 37 °C in a humidified atmosphere of 5% CO2 and maintained at low passage.
(§5) The antiproliferative activity was tested in vitro against human cancer cells using the protocol of the National Cancer Institute (NCI) of the USA16 with minor modifications. The following densities (cells per well) were used: 2500 (A549, HBL-100, HeLa and SW1573), 5000 (T-47D, WiDr and SW1573/PGP), and 7000 (BJ-hTERT). Samples for testing were dissolved initially in DMSO at 40 mM, i.e., 400 times the maximum test concentration. Abiraterone and galeterone were used as reference drugs for antiproliferative tests, verapamil was used as a P-gp transport inhibitor in SW1573/Pgp experiments, and their stock solutions were prepared in DMSO at 40 mM. Paclitaxel and vinblastine were used as positive controls in SW1573/Pgp experiments and were initially dissolved in DMSO at 4 mM. For each test compound, the cells were exposed to serial decimal dilutions in the range of 0.001–100 μM for a period of 48 h. Cell culture medium containing verapamil was prepared by adding the final concentration of verapamil of 10 μM. For each product GI50 values were calculated according to the NCI formulas.

T-47D (breast) cells = assay: Growth inhibition assay (NCI protocol), T-47D; format: cell-based, human; conditions: Homo sapiens, T47D; 48 h exposure
Source text: as §1, §2

P-gp = assay: in vitro; conditions: human
Source text: as §3, §4, §5

HeLa (cervix) cells = assay: Growth inhibition assay (NCI protocol), HeLa; format: cell-based, human; conditions: Homo sapiens, HeLa; 48 h exposure
Source text: as §1, §2

WiDr (colon) cells = assay: Growth inhibition assay (NCI protocol), WiDr; format: cell-based, human; conditions: Homo sapiens, WiDr; 48 h exposure
Source text: as §1, §2

[4] = tested on: A549 (non-small cell lung) cells; assay: Growth inhibition assay (NCI protocol), A549; format: cell-based, human; conditions: Homo sapiens, A549; 48 h exposure
Source text: as §1, §2

P-glycoprotein 1 (P-gp) = target: T1, P-glycoprotein 1 (P-gp) (Homo sapiens, UniProt P08183); assay: P-glycoprotein assay (SW1573/PGP vs SW1573, resistance factor); format: cell-based; conditions: ratio between GI50 values in SW1573/PGP and SW1573 cells; for Rf w Verapamil: with 10 µM verapamil; for Rf w/o Verapamil: without verapamil
T1 construct: its P-gp overexpressing variant (SW1573/PGP); endogenous in cells; host or cells: SW1573 and SW1573/PGP (SW1573/Pgp) human non-small cell lung cancer cells, provided by Dr. G. J. Peters (Amsterdam)
Source text: as §3, §5

[5] = tested on: human solid tumor cell lines; assay: Antiproliferative activity against the panel of human solid tumor cell lines; format: cell-based; conditions: A549, HBL-100, HeLa, T-47D, WiDr, read-out: GI50 range against all tumor cells
Source text: as §4
The antiproliferative activity was tested in vitro against human cancer cells using the protocol of the National Cancer Institute (NCI) of the USA16 with minor modifications. The following densities (cells per well) were used: 2500 (A549, HBL-100, HeLa and SW1573), 5000 (T-47D, WiDr and SW1573/PGP), and 7000 (BJ-hTERT). Samples for testing were dissolved initially in DMSO at 40 mM, i.e., 400 times the maximum test concentration. […] For each product GI50 values were calculated according to the NCI formulas.

T1 sequence (P08183 whole entry): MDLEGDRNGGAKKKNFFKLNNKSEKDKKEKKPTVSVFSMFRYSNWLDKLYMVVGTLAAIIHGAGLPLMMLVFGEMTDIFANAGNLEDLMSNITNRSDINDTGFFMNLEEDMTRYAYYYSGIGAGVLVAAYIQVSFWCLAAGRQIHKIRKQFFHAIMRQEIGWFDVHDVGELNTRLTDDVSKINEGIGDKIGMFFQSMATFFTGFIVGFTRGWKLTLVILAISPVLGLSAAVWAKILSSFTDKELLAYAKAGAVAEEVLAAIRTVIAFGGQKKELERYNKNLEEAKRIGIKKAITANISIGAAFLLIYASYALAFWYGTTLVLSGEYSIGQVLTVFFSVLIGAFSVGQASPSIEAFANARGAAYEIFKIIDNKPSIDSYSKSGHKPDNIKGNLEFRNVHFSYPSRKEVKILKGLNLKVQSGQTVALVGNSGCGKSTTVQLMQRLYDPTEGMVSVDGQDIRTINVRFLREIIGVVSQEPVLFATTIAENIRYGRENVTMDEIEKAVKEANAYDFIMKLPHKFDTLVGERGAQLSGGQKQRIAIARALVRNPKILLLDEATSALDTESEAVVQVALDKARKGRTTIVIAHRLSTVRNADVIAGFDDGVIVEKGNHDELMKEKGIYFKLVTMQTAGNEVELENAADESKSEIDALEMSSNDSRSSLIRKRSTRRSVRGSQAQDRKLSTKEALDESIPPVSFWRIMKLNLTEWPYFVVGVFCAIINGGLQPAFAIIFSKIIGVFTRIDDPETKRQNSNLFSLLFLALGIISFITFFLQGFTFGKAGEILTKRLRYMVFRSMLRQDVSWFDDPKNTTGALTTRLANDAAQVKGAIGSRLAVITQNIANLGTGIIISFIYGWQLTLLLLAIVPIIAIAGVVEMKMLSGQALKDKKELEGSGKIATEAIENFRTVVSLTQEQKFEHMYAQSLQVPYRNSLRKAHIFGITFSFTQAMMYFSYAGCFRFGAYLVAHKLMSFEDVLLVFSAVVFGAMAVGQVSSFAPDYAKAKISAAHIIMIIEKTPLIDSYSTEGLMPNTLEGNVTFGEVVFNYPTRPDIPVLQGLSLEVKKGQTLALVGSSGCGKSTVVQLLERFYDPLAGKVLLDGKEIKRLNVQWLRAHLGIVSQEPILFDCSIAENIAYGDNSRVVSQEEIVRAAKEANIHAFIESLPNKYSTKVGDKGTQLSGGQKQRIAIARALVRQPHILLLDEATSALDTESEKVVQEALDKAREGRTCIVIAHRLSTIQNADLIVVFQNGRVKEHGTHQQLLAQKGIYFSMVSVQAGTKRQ

Structure (SMILES): CC1=C2C(CC3C4CC=C5C[C@@H](O)CC[C@]5(C)C4CC[C@]23C)NC(=N)N1 (stereo partly drawn) [Compound 7a, 1′,3′-dihydro-2′-imino-4′-methylpyrimidin-(6′,5′:16,17)-androst-5-en-3β-ol]
- melting point: 108 to 110 °C
- solubility under protocol conditions [1]: poor solubility

Structure (SMILES): CC1=C2C(CC3C4CC=C5C[C@@H](O)CC[C@]5(C)C4CC[C@]23C)NC(=O)N1 (stereo partly drawn) [Compound 7b, 1′,3′-dihydro-4′-methyl-2′-oxopyrimidin-(6′,5′:16,17)-androst-5-en-3β-ol]
- GI50 (HBL-100 (breast) cells): 15 ± 3.2 µM
- GI50 [2]: > 100 µM
- GI50 [3]: 34 ± 4.7 µM
- melting point: 163 to 164 °C
- GI50 (T-47D (breast) cells): 15 ± 1.9 µM
- GI50 at 48 h (P-gp): 49 ± 4.4 µM
- GI50 (HeLa (cervix) cells): 3.4 ± 0.2 µM
- GI50 (WiDr (colon) cells): 18 ± 1.8 µM
- GI50 [4]: 13 ± 3.7 µM
- Rf w Verapamil (P-glycoprotein 1 (P-gp)): 1.4
- Rf w/o Verapamil (P-glycoprotein 1 (P-gp)): 1.5

Structure (SMILES): CC1=C2C(CC3C4CC=C5C[C@@H](O)CC[C@]5(C)C4CC[C@]23C)NC(=S)N1 (stereo partly drawn) [Compound 7c, 1′,3′-dihydro-4′-methyl-2′-thionepyrimidin-(6′,5′:16, 17)-androst-5-en-3β-ol]
- GI50 (HBL-100 (breast) cells): 3.7 ± 1 µM
- GI50 [2]: > 100 µM
- GI50 [3]: 9.4 ± 1 µM
- melting point: 208 to 210 °C
- GI50 [5]: 2.6 to 3.7 µM
- GI50 (T-47D (breast) cells): 3 ± 0.5 µM
- GI50 at 48 h (P-gp): 16 ± 1.3 µM
- GI50 (HeLa (cervix) cells): 2.6 ± 0.7 µM
- GI50 (WiDr (colon) cells): 3.1 ± 0.4 µM
- GI50 [4]: 3.4 ± 0.5 µM
- Rf w Verapamil (P-glycoprotein 1 (P-gp)): 1.1
- Rf w/o Verapamil (P-glycoprotein 1 (P-gp)): 1.7

Structure (SMILES): C[C@]12CC[C@H](O)CC1=CC[C@@H]1[C@@H]2CC[C@]2(C)C(n3cnc4ccccc43)=CC[C@@H]12 [Galeterone, galeterone, reference compound]
- GI50 (HBL-100 (breast) cells): 10 ± 0.9 µM
- GI50 [2]: 5 ± 1.3 µM
- GI50 (T-47D (breast) cells): 2.1 ± 0.1 µM
- GI50 (HeLa (cervix) cells): 5.3 ± 0.4 µM
- GI50 (WiDr (colon) cells): 2.7 ± 0.2 µM
- GI50 [4]: 3.9 ± 1.3 µM

- GI50 ([3]; reference drugs PTX and VB): 0.0015 ± 0.0005 µM
- Rf w Verapamil (P-glycoprotein 1 (P-gp)): 2.6
- Rf w/o Verapamil (P-glycoprotein 1 (P-gp)): 128
Structure (SMILES): CC(=O)O[C@H]1C(=O)[C@@]2(C)[C@H]([C@H](OC(=O)c3ccccc3)[C@]3(O)C[C@H](OC(=O)[C@H](O)[C@@H](NC(=O)c4ccccc4)c4ccccc4)C(C)=C1C3(C)C)[C@]1(OC(C)=O)CO[C@@H]1C[C@@H]2O [PTX, Paclitaxel, reference compound]
- GI50 at 48 h (P-gp): 0.196 ± 0.053 µM

- GI50 ([3]; reference drugs PTX and VB): 0.0009 ± 0.0003 µM
- Rf w Verapamil (P-glycoprotein 1 (P-gp)): 1.3
- Rf w/o Verapamil (P-glycoprotein 1 (P-gp)): 2388
Structure (SMILES): CC[C@]1(O)C[C@@H]2CN(CCc3c([nH]c4ccccc34)[C@@](C(=O)OC)(c3cc4c(cc3OC)N(C)[C@H]3[C@@](O)(C(=O)OC)[C@H](OC(C)=O)[C@]5(CC)C=CCN6CC[C@]43[C@@H]65)C2)C1 [VB, vinblastine, reference compound]
- GI50 at 48 h (P-gp): 2.05 ± 0.682 µM
